For test [1], the target named is Small ubiquitin-related modifier 2 (Homo sapiens, UniProt P61956). The test can be described thus: SUMO2–SIM peptide binding inhibitors, dose response, selectivity assay for SUMO1 interaction inhibitor project, biochemical, fluorescence polarization, uHTS hits (AID 624385). The note with it: read-out: IC50_Mean. In kind it is functional. A general note: Fluorescence polarisation rises when a labelled molecule tumbles more slowly, as on binding a larger partner.

Test [2] has as its target Dual specificity protein phosphatase 3 (Homo sapiens, UniProt P51452). The test can be described thus: VHR1 phosphatase inhibitors, biochemical (AID 1878).
Test [3] addresses Dual specificity tyrosine-phosphorylation-regulated kinase 1A (Rattus norvegicus, UniProt Q63470). It counts as biochemical, Homo sapiens.
For test [4], the target named is T1, 1-phosphatidylinositol 4,5-bisphosphate phosphodiesterase beta-3 (Homo sapiens, UniProt Q01970).
T1 sequence (Q01970 whole entry): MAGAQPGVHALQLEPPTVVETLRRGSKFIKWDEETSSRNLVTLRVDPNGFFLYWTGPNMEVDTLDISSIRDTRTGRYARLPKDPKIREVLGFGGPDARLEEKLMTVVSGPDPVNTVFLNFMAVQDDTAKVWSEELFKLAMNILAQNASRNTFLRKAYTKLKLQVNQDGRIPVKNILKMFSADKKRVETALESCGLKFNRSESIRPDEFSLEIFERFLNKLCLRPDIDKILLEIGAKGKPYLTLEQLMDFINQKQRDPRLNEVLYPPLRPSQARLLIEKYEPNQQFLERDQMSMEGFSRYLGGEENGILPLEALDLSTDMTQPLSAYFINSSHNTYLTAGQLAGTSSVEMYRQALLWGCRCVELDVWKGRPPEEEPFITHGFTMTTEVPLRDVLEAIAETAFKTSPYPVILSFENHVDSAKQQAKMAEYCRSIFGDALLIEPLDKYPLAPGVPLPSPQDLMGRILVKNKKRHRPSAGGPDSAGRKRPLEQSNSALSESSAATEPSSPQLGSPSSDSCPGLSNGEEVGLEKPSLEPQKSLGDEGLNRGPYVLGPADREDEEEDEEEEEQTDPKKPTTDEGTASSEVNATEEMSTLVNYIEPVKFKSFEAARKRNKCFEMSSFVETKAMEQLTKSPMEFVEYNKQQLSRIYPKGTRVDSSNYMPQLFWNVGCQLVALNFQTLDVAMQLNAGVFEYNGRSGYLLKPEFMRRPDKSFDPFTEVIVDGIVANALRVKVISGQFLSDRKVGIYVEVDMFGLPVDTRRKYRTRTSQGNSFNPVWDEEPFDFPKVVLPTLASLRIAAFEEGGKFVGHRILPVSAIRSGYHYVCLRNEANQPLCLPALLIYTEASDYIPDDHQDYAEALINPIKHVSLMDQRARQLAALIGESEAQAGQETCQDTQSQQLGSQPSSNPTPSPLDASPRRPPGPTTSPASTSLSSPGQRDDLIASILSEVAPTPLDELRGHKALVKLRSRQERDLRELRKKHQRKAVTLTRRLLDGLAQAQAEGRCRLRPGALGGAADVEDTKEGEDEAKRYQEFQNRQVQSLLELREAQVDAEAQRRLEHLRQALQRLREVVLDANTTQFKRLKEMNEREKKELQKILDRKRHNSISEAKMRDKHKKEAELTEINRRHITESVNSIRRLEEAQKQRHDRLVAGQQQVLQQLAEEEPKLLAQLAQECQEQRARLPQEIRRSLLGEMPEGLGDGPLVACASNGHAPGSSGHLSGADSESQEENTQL
The experiment in a line: Fluorescence-based biochemical high throughput dose response assay to identify inhibitors of phospholipase C isozymes (PLC-B3).

A short description of test [5]: HEK293T cytotoxicity, dose response, cytotoxicity control for miR-122 modulator project, cell-based, activator set, cherry-pick (AID 720690).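 Note: HEK293T human cells scored for general mammalian cytotoxicity.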 In kind it is functional.
Test [6] concerns the target Cytochrome P450 2C9 (Homo sapiens, UniProt P11712).

Activity calls are given as the source filed them.

Sequence of Dual specificity protein phosphatase 3 (P51452 whole entry): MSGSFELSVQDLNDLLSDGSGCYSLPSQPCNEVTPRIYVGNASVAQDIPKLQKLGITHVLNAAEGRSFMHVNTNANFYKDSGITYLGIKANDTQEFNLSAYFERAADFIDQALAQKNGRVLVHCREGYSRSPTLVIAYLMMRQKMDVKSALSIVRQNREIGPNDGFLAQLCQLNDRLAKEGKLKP
Sequence of Cytochrome P450 2C9 (P11712 whole entry): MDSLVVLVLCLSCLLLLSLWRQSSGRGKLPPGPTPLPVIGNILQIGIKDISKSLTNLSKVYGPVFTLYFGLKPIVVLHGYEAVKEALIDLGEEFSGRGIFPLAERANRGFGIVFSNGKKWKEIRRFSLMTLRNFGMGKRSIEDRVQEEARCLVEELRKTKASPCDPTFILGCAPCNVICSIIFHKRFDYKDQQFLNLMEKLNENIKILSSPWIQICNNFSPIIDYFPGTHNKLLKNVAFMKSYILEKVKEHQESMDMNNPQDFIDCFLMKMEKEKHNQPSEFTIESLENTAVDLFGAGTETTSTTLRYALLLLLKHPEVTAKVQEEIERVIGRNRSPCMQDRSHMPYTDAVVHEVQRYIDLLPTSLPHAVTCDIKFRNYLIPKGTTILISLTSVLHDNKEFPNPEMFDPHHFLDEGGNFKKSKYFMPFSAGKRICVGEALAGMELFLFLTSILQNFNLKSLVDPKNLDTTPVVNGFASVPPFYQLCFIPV
Sequence of Small ubiquitin-related modifier 2 (P61956 whole entry): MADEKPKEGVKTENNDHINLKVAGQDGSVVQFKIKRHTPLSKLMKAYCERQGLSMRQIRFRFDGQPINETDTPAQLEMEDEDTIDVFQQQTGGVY

On to `COc1ccc(NS(=O)(=O)c2ccc3c(c2)[C@H]2C=CC[C@H]2[C@@H](c2ccc(C(=O)O)cc2)N3)cc1`, for which the IC50 in test [1] was 4.06 µM (active).

Usually AC50 stands for the concentration giving half of the maximal activity seen. As for `Cn1nc(-c2ccccn2)nc2c(=O)n(C)c(=O)nc1-2`, the IC50 in test [2] is 10.2 µM (active); in test [4] it was > 122 µM (inactive). For the same compound, the AC50 in test [3] was 284 nM (active).

For the compound `CCCCCCCCCCn1c2c(c(=N)c3c1CCC3)CCC2`, the concentration at half-maximal activity (AC50) is 6.56 µM (active) in test [5] and 20 µM (inconclusive) in test [6].

The values above are taken from ChEMBL document CHEMBL1201862, “PubChem BioAssay data set” (2004).
